Where two headings read alike, the source gives them in different places.
What was measured:
PDGFRB (PDGFR beta) = PDGFRB (PDGFR beta) (Homo sapiens, UniProt P09619); test: SelectScreen Z'-LYTE kinase profiling; format: biochemical
Procedure: (§1) Liquiritin was screened at 0.1 µM dose against a panel of 15 human kinases using SelectScreen® kinase profiling services offered by ThermoFisher Scientific™ (Madison, WI, USA). The percent inhibition of Liquiritin was assessed against each kinase in an automated high-throughput screening system using the time-resolved fluorescence resonance energy transfer Z´-LYTE™ kinase assay. Technology overview, protocols, and assay conditions are accessible at https://x.gd/UgBBB.

EGFR (ErbB1) = EGFR (ErbB1) (Homo sapiens, UniProt P00533); test: SelectScreen Z'-LYTE kinase profiling; format: biochemical
Chain of EGFR (ErbB1) (P00533 25-1210): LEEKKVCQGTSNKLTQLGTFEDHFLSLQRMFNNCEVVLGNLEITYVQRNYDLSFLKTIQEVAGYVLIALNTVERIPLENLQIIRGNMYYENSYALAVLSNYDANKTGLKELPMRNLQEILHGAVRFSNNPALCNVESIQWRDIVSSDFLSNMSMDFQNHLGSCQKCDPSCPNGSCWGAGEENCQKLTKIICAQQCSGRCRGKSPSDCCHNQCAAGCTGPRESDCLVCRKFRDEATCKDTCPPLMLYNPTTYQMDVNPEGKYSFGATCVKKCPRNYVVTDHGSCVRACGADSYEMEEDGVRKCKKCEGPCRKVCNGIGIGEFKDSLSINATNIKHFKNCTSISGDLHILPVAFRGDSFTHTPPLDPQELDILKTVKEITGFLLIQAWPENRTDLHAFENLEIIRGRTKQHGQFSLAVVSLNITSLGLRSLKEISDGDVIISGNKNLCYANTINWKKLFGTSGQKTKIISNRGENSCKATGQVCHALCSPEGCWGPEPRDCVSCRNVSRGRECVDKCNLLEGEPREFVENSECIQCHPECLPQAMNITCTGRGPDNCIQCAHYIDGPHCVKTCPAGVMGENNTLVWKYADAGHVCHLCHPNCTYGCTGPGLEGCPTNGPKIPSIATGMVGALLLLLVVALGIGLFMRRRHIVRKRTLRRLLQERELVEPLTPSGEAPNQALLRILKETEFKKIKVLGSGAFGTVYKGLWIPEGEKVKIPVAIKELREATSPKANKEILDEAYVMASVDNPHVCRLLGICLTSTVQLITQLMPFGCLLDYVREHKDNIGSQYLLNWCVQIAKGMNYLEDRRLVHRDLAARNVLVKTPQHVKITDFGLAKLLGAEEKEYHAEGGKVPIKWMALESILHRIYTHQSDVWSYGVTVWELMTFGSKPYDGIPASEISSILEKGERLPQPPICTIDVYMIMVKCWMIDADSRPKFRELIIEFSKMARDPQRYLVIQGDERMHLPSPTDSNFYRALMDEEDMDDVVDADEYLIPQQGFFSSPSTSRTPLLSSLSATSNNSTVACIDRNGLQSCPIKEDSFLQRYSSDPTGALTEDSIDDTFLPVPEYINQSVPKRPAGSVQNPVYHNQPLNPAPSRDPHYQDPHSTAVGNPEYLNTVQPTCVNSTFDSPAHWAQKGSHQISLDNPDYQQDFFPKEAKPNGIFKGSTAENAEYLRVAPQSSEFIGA
Procedure: as §1

FGFR1 = FGFR1 (Homo sapiens, UniProt P11362); test: SelectScreen Z'-LYTE kinase profiling; format: biochemical
Procedure: as §1

KIT = KIT (Homo sapiens, UniProt P10721); test: SelectScreen Z'-LYTE kinase profiling; format: biochemical
Procedure: as §1

IGF1R = IGF1R (Homo sapiens, UniProt P08069); test: SelectScreen Z'-LYTE kinase profiling; format: biochemical
Procedure: as §1

ALK = ALK (Homo sapiens, UniProt Q9UM73); test: SelectScreen Z'-LYTE kinase profiling; format: biochemical
Procedure: as §1

TYRO3 (RSE) = TYRO3 (RSE) (Homo sapiens, UniProt Q06418); test: SelectScreen Z'-LYTE kinase profiling; format: biochemical
Procedure: as §1

RET = RET (Homo sapiens, UniProt P07949); test: SelectScreen Z'-LYTE kinase profiling; format: biochemical
Procedure: as §1

ROS1 = ROS1 (Homo sapiens, UniProt P08922); test: SelectScreen Z'-LYTE kinase profiling; format: biochemical
Procedure: as §1

MET (cMet) = MET (cMet) (Homo sapiens, UniProt P08581); test: SelectScreen Z'-LYTE kinase profiling; format: biochemical
Procedure: as §1

ERBB2 (HER2) = ERBB2 (HER2) (Homo sapiens, UniProt P04626); test: SelectScreen Z'-LYTE kinase profiling; format: biochemical
Chain of ERBB2 (HER2) (P04626 23-1255): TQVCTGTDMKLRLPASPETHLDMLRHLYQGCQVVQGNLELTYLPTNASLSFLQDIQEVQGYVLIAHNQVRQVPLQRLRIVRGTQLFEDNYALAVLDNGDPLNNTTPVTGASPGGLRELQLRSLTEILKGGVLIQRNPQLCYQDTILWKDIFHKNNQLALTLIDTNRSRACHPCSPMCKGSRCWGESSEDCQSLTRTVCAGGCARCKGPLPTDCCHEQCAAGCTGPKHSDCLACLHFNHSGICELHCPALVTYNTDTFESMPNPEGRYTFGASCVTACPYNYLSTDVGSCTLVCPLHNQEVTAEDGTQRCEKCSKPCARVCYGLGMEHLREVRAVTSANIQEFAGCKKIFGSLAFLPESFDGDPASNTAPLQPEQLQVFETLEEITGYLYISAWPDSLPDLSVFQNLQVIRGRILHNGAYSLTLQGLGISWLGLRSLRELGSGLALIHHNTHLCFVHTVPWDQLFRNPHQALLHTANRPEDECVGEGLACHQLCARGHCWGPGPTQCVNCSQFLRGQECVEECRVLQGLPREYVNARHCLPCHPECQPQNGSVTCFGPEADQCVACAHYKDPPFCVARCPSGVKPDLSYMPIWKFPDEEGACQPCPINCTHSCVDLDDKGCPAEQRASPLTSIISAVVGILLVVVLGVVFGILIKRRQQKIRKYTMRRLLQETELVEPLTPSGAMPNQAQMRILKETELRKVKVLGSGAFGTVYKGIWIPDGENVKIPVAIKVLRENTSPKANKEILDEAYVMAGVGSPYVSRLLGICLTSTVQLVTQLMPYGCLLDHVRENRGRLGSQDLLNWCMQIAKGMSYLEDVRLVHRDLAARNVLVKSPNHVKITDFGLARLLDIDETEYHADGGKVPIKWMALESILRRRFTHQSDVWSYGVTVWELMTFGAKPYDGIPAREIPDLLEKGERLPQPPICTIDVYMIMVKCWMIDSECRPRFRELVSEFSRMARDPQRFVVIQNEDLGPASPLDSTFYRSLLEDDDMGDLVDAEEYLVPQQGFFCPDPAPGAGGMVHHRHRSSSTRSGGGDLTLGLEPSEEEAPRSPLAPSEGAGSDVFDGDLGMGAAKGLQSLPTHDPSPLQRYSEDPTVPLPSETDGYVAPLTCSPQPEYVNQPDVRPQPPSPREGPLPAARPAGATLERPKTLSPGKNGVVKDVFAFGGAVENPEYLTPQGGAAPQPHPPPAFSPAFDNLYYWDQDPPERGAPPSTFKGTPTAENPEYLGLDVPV
Procedure: as §1

ERBB4 (HER4) = ERBB4 (HER4) (Homo sapiens, UniProt Q15303); test: SelectScreen Z'-LYTE kinase profiling; format: biochemical
Chain of ERBB4 (HER4) (Q15303 26-1308): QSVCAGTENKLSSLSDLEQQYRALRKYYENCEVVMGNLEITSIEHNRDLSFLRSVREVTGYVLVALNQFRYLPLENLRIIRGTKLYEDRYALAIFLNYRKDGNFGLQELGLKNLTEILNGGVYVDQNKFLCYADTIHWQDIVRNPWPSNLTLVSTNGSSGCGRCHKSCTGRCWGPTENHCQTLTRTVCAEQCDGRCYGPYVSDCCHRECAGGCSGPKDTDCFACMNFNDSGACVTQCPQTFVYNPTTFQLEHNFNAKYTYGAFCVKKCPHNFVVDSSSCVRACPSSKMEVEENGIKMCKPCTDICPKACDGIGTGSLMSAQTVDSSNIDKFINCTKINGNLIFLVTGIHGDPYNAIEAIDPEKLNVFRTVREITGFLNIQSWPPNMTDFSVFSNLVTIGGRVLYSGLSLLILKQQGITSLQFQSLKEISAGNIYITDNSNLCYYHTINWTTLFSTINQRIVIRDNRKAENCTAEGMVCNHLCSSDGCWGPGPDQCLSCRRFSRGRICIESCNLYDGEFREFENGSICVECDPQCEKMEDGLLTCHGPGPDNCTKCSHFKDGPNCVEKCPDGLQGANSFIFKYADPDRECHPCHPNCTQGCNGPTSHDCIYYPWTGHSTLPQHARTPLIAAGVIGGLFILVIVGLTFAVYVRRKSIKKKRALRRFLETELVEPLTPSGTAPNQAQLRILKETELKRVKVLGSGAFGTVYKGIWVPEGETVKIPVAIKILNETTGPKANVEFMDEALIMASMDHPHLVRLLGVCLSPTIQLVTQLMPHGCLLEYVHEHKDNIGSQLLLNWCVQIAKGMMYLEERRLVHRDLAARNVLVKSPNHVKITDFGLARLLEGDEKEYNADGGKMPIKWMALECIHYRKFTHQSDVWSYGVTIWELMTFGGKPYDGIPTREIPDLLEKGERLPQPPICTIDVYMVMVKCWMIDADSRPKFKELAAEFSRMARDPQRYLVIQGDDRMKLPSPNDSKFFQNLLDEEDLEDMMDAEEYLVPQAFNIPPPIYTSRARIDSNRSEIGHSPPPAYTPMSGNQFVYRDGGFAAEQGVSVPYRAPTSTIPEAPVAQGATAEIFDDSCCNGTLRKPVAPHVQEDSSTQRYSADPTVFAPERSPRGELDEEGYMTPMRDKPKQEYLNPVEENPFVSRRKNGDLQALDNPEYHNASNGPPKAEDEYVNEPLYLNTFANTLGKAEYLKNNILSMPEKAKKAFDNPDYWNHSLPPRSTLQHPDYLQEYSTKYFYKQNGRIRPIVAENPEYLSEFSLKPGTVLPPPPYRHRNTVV
Procedure: as §1

MST1R (RON) = MST1R (RON) (Homo sapiens, UniProt Q04912); test: SelectScreen Z'-LYTE kinase profiling; format: biochemical
Procedure: as §1

FLT1 (VEGFR1) = FLT1 (VEGFR1) (Homo sapiens, UniProt P17948); test: SelectScreen Z'-LYTE kinase profiling; format: biochemical
Procedure: as §1

KDR (VEGFR2) = KDR (VEGFR2) (Homo sapiens, UniProt P35968); test: SelectScreen Z'-LYTE kinase profiling; format: biochemical
Procedure: as §1

BT-474 cells [1] = test: Transwell cell migration assay, BT-474; format: cell-based; settings: Homo sapiens; BT-474, 3.5 µM, 24 h; read-out: inhibition of migration relative to vehicle-treated cells
Procedure: The in vitro transwell migration assay was conducted using an HTS-96 transwell permeable support chamber with 8 μm pores (Corning, USA) equipped with polyvinylpyrrolidone-free polycarbonate (PVPF) filters. […] The plate was incubated for 24 h at 37 °C. Then, the transwell inserts were incubated in the receiver plate with Calcein AM/cell dissociation solution at 37 °C in 5% CO2 incubator for 1 h, followed by measuring the fluorescence using a fluorescence plate reader with 485 nm excitation and 520 nm emission filter package. The relative fluorescence units were converted to cell count using a standard curve. The number of cells that moved to the lower side of the filter was used to assess migratory characteristics. The experiment in both cell lines was conducted in triplicate and data are presented as the mean ± SD.

SKBR3 cells = test: MTT proliferation assay, SKBR3; format: cell-based, human; settings: Homo sapiens, SK-BR-3
BT-474 cells [2] = test: Wound healing assay, BT-474; format: cell-based; settings: Homo sapiens
Procedure: In a sterile flat-bottom 24-well plate, SKBR3 and BT-474 breast cancer cells were plated at a density of 1 × 10^5 cells/well. […] Wounds were then inflicted across each cell monolayer using a sterile 200 µL pipette tip. Media was aspirated, and cells were washed twice with PBS to remove floating cells and cell debris. Fresh serum-free media was placed up against the well wall to cover the bottom of the well and prevent further cell detachment. Incubation of cells was resumed for five hours at 37 °C in a humidified CO2 incubator. Subsequently, the media were substituted with fresh ones containing various doses of liquiritin, oroxin B, or DMSO as a vehicle control (3 replicates/group) along with EGF (100 ng/mL) as a scattering factor. Wound closure was microscopically monitored in vehicle-treated control wells, and the time frame for wound closure was determined to be 72 h. Before the closure of wounds in the vehicle-treated control wells, the media were removed, cells were washed with PBS and completely fixed using cold methanol for 20 min at 4 °C. An inverted VistaVision microscope was used to take pictures of the wounds monitored at zero and 72 h with a VistaVision Still camera (VWR, Radnor, PA).
Results were expressed as a percentage of cell migration according to the following Equation[16]: [drawing 2]
Where Tt is the wound thickness in treatment wells, TDMSO is the thickness of the wound in control wells treated by DMSO, and Tº is the thickness of the wound at zero time. Wound thickness was calculated in three or more randomly selected fields per treatment group.

caspase 9 = test: Real-time PCR caspase gene expression in BT-474 cells; format: cell-based, human; settings: BT-474, liquiritin at its IC50
Procedure: (§2) RNA extraction was performed using Qiagen total RNA extraction kit from seeded BT-474 cells untreated and treated with liquiritin at a concentration equivalent to its respective IC50 value (determined via prior proliferation assays) according to the manufacturer’s manual. NanoDrop Lite Plus spectrophotometer™ (ThermoScientific, USA) was used for quantitation and purity evaluation of the extracted total RNA. cDNA synthesis and real-time quantitative PCR were performed in one reaction tube using iScript™ One-Step RT-PCR Kit with SYBR® Green (Bio-Rad, USA) using primers listed in Table S2 per the instruction’s manual. The relative gene expression of caspases 3, 8, and 9 was analyzed using the 2^−ΔΔCT method along with untreated BT-474 cells as control and Glyceraldehyde-3-phosphate dehydrogenase (GAPDH) as a housekeeping gene. The data were expressed as fold change in gene expression.

caspase 3 = test: as above; format: cell-based, human; settings: BT-474, liquiritin at its IC50
Procedure: as §2

caspase 8 = test: as above; format: cell-based, human; settings: BT-474, liquiritin at its IC50
Procedure: as §2

Chain of PDGFRB (PDGFR beta) (P09619 33-1106): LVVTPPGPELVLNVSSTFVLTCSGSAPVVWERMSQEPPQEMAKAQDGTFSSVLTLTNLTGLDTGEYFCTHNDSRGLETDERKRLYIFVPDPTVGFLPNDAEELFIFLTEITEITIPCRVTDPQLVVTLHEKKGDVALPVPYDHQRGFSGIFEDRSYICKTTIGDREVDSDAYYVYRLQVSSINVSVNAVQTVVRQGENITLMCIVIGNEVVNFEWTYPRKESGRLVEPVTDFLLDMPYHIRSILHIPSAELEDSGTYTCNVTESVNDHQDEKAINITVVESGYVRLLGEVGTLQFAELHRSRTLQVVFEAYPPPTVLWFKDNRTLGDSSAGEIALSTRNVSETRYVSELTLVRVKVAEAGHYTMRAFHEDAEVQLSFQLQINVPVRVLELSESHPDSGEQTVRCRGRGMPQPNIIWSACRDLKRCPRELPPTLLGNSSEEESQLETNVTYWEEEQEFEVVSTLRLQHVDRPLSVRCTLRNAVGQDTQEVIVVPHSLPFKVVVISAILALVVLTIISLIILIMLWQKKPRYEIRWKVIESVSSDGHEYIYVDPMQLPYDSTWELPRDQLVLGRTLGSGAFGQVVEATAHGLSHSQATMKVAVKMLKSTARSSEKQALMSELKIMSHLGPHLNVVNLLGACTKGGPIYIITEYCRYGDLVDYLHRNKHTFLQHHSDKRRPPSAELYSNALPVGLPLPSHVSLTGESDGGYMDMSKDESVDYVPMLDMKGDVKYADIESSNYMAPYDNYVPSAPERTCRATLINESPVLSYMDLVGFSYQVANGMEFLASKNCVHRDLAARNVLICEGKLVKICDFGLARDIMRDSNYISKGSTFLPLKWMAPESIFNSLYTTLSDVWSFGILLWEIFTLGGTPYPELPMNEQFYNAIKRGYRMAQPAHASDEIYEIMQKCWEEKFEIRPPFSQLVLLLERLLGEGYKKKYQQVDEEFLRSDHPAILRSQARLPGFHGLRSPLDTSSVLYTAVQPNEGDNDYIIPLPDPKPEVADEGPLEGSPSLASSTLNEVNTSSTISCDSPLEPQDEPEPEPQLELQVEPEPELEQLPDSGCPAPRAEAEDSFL

inhibition at 0.1 µM (PDGFRB (PDGFR beta)): 4%
inhibition at 0.1 µM (EGFR (ErbB1)): > 80%
Mean inhibition (%) (EGFR (ErbB1); 0.1 µM): 99%
inhibition at 0.1 µM (FGFR1): 7%
inhibition at 0.1 µM (KIT): 0%
inhibition at 0.1 µM (IGF1R): 4%
inhibition at 0.1 µM (ALK): 7%
inhibition at 0.1 µM (TYRO3 (RSE)): 5%
inhibition at 0.1 µM (RET): 2%
inhibition at 0.1 µM (ROS1): 8%
inhibition at 0.1 µM (MET (cMet)): 5%
inhibition at 0.1 µM (ERBB2 (HER2)): > 80%
Mean inhibition (%) (ERBB2 (HER2); 0.1 µM): 92%
inhibition at 0.1 µM (ERBB4 (HER4)): > 80%
Mean inhibition (%) (ERBB4 (HER4); 0.1 µM): 88%
inhibition at 0.1 µM (MST1R (RON)): 7%
inhibition at 0.1 µM (FLT1 (VEGFR1)): 2%
inhibition at 0.1 µM (KDR (VEGFR2)): 4%
IC50 (SKBR3 cells; SKBR3, MTT, 48 h (Table S8), read-out: Cell growth inhibition IC50): 6.4 µM
IC50 (SKBR3 cells; SKBR3, Table S9, read-out: IC50): 6.4 ± 0.2 µM
IC50 (BT-474 cells [2]; BT-474, wound healing, read-out: IC50, cell migration): 10.4 µM
Compound: O=C1C[C@@H](c2ccc(O[C@@H]3O[C@H](CO)[C@@H](O)[C@H](O)[C@H]3O)cc2)Oc2cc(O)ccc21 [Liquiritin]
inhibition at 3.5 µM (BT-474 cells [1]): ~76%
inhibition at 2 µM (BT-474 cells [2]; BT-474, 2 µM, 72 h, read-out: inhibition of cell migration): 20%
inhibition at 3 µM (BT-474 cells [2]; BT-474, 3 µM, 72 h, read-out: inhibition of cell migration): 25.6%
inhibition at 5 µM (BT-474 cells [2]; BT-474, 5 µM, 72 h, read-out: inhibition of cell migration): 31.2%
inhibition at 10 µM (BT-474 cells [2]; BT-474, 10 µM, 72 h, read-out: inhibition of cell migration): 50.6%
caspase 9 expression, fold change vs untreated cells (caspase 9): ~8.1 fold
caspase 3 expression, fold change vs untreated cells (caspase 3): approximately 10.8 fold
caspase-8 expression, fold increase (caspase 8): 2.6 fold

Source: PMC12267471, “Discovery of natural scaffolds as HER2 inhibitors for breast cancer: virtual screening, molecular dynamics, and biological characterization with selectivity profiling” (Scientific Reports, 2025)
